Measurements reported in US9586931B2 (Merck Sharp & Dohme Corp., priority 2012, dated 2017).
Structures can show the parent of a compound that is named as a salt.

The compounds below were run against T1, recombinant human GST-Syk (Homo sapiens, UniProt P43405) (assay: Homogeneous Time-Resolved Fluorescence (HTRF) assay for the recombinant human Syk enzyme). Details: recombinant human GST-Syk 5 pM, ATP 25 μM, 10-dose titration 10 μM to 0.508 nM; read-out: rhSYK Activity IC50.
T1 construct: purchased Carna Biosciences 08-176
Assay type: biochemical
Procedure, shortened: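 GST-hSyk fusion protein phosphorylated a peptide for 45 min at room temperature. The reaction was quenched with 2 nM Eu-anti-phosphotyrosine antibody and 70 nM SA-APC in 15 mM Tris pH 7.5, 40 mM EDTA, 0.01% Tween 20. The HTRF signal was read after 30 min.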

Row | IC50 [nM] | Structure (SMILES)
1 | 30.7 | Cc1cc(Nc2nccc(C(F)F)n2)cc(-c2cn(C3CCCC(C)(O)C3O)nn2)c1 (single isomer, unassigned) [Example 29.2, 3-(4-(3-((4-(Difluoromethyl)pyrimidin-2-yl)amino)-5-methylphenyl)-1H-1,2,3-triazol-1-yl)-1-methylcyclohexane-1,2-diol]
2 | 10.5 | Cc1cc(Nc2nccc(C(F)F)n2)cc(-c2cn(C3CCCC(C)(O)C3O)nn2)c1 (single isomer, unassigned) [Example 29.3, 3-(4-(3-((4-(Difluoromethyl)pyrimidin-2-yl)amino)-5-methylphenyl)-1H-1,2,3-triazol-1-yl)-1-methylcyclohexane-1,2-diol]
3 | 12.4 | Cc1cc(Nc2nccc(C(F)F)n2)cc(-c2cn(C(C)C(C)(O)CO)nn2)c1 (single isomer, unassigned) [Example 30.1, 3-(4-(3-((4-(Difluoromethyl)pyrimidin-2-yl)amino)-5-methylphenyl)-1H-1,2,3-triazol-1-yl)-2-methylbutane-1,2-diol]
4 | 6.3 | Cc1cc(Nc2nccc(C(F)F)n2)cc(-c2cn(C(C)C(C)(O)CO)nn2)c1 (single isomer, unassigned) [Example 30.2, 3-(4-(3-((4-(Difluoromethyl)pyrimidin-2-yl)amino)-5-methylphenyl)-1H-1,2,3-triazol-1-yl)-2-methylbutane-1,2-diol]
5 | 8 | Cc1cc(Nc2nccc(C(F)F)n2)cc(-c2cn(C(C)C(C)(O)CO)nn2)c1 (single isomer, unassigned) [Example 30.3, 3-(4-(3-((4-(Difluoromethyl)pyrimidin-2-yl)amino)-5-methylphenyl)-1H-1,2,3-triazol-1-yl)-2-methylbutane-1,2-diol]
6 | 11.4 | Cc1cc(Nc2nccc(C(F)F)n2)cc(-c2cn(C(C)C(C)(O)CO)nn2)c1 (single isomer, unassigned) [Example 30.4, 3-(4-(3-((4-(Difluoromethyl)pyrimidin-2-yl)amino)-5-methylphenyl)-1H-1,2,3-triazol-1-yl)-2-methylbutane-1,2-diol]
7 | 2.7 | Cc1cc(Nc2cc(C(F)F)ccn2)nc(-c2cn(C(C)C(C)(O)CO)nn2)c1 (single isomer, unassigned) [Example 30.5, 3-[4-(6-{[4-(difluoromethyl)pyridin-2-yl]amino}-4-methylpyridin-2-yl)-1H-1,2,3-triazol-1-yl]-2-methylbutane-1,2-diol]
8 | 6.5 | Cc1cc(Nc2cc(C(F)F)ccn2)nc(-c2cn(C(C)C(C)(O)CO)nn2)c1 (single isomer, unassigned) [Example 30.6, 3-[4-(6-{[4-(difluoromethyl)pyridin-2-yl]amino}-4-methylpyridin-2-yl)-1H-1,2,3-triazol-1-yl]-2-methylbutane-1,2-diol]
9 | 1.4 | Cc1cc(Nc2cc(C(F)F)ccn2)nc(-c2cn(C(C)C(C)(O)CO)nn2)c1 (single isomer, unassigned) [Example 30.7, 3-[4-(6-{[4-(difluoromethyl)pyridin-2-yl]amino}-4-methylpyridin-2-yl)-1H-1,2,3-triazol-1-yl]-2-methylbutane-1,2-diol]
10 | 1.2 | Cc1cc(Nc2cc(C(F)F)ccn2)nc(-c2cn(C(C)C(C)(O)CO)nn2)c1 (single isomer, unassigned) [Example 30.8, 3-[4-(6-{[4-(difluoromethyl)pyridin-2-yl]amino}-4-methylpyridin-2-yl)-1H-1,2,3-triazol-1-yl]-2-methylbutane-1,2-diol]
11 | 7.3 | Cc1cc(Nc2nccc(C(F)F)n2)cc(-c2cn(CC3(O)CNC(=O)C3)nn2)c1 (single isomer, unassigned) [Example 31.1, 4-((4-(3-((4-(Difluoromethyl)pyrimidin-2-yl)amino)-5-methylphenyl)-1H-1,2,3-triazol-1-yl)methyl)-4-hydroxypyrrolidin-2-one]
12 | 4.7 | Cc1cc(Nc2nccc(C(F)F)n2)cc(-c2cn(CC3(O)CNC(=O)C3)nn2)c1 (single isomer, unassigned) [Example 31.2, 4-((4-(3-((4-(Difluoromethyl)pyrimidin-2-yl)amino)-5-methylphenyl)-1H-1,2,3-triazol-1-yl)methyl)-4-hydroxypyrrolidin-2-one]
13 | 1130 | Cc1cc(Nc2cc(C(F)(F)F)ccn2)nc(-c2cn(-c3ccc(Br)cn3)nn2)c1 [6.2]
14 | 76.3 | COC(=O)CNC(=O)[C@H](C)n1cc(-c2cc(C)cc(Nc3cc(C(F)(F)F)ccn3)n2)nn1 [Example 1.1, Methyl N-{(2S)-2-[4-(4-methyl-6-{[4-(trifluoromethyl)pyridin-2-yl]amino}pyridin-2-yl)-1H-1,2,3-triazol-1-yl]propanoyl}glycinate trifluoroacetate]
15 | 3.8 | Cc1cc(Nc2cc(C(F)(F)F)ccn2)nc(-c2cn(CCC(N)=O)nn2)c1 [Example 1.3, 3-[4-(4-methyl-6-{[4-(trifluoromethyl)pyridin-2-yl]amino}pyridin-2-yl)-1H-1,2,3-triazol-1-yl]propanamide]
16 | 2.9 | Cc1cc(Nc2cc(C(F)(F)F)ccn2)nc(-c2cn(C(CO)c3ccc(C(N)=O)cc3)nn2)c1 (stereo not drawn) [Example 1.9, 4-{2-hydroxy-1-[4-(4-methyl-6-{[4-(trifluoromethyl)pyridin-2-yl]amino}pyridin-2-yl)-1H-1,2,3-triazol-1-yl]ethyl}benzamide]
17 | 6.3 | Cc1cc(Nc2cc(C(F)(F)F)ccn2)nc(-c2cn(CC(O)c3ccc(C(N)=O)cc3)nn2)c1 (stereo not drawn) [Example 1.10, 4-{1-hydroxy-2-[4-(4-methyl-6-{[4-(trifluoromethyl)pyridin-2-yl]amino}pyridin-2-yl)-1H-1,2,3-triazol-1-yl]ethyl}benzamide]
18 | 20.3 | Cc1cc(Nc2cc(C(F)(F)F)ccn2)nc(-c2cn(C3CCC(C(N)=O)c4ccccc43)nn2)c1 (stereo not drawn) [Example 1.11, 4-[4-(4-methyl-6-{[4-(trifluoromethyl)pyridin-2-yl]amino}pyridin-2-yl)-1H-1,2,3-triazol-1-yl]-1,2,3,4-tetrahydronaphthalene-1-carboxamide]
19 | 4.9 | Cc1cc(Nc2cc(C(F)(F)F)ccn2)nc(-c2cn(CC(C)(O)C(N)=O)nn2)c1 (stereo not drawn) [Example 1.12, 2-hydroxy-2-methyl-3-[4-(4-methyl-6-{[4-(trifluoromethyl)pyridin-2-yl]amino}pyridin-2-yl)-1H-1,2,3-triazol-1-yl]propanamide]
20 | 3.4 | Cc1cc(Nc2cc(C(F)(F)F)ccn2)nc(-c2cn(C[C@H](O)C(N)=O)nn2)c1 [Example 1.13, (2S)-2-hydroxy-3-[4-(4-methyl-6-{[4-(trifluoromethyl)pyridin-2-yl]amino}pyridin-2-yl)-1H-1,2,3-triazol-1-yl]propanamide]
21 | 9.1 | Cc1cc(Nc2cc(C(F)(F)F)ccn2)nc(-c2cn(C[C@@H](O)C(N)=O)nn2)c1 [Example 1.14, (2R)-2-hydroxy-3-[4-(4-methyl-6-{[4-(trifluoromethyl)pyridin-2-yl]amino}pyridin-2-yl)-1H-1,2,3-triazol-1-yl]propanamide]
22 | 15.4 | Cc1cc(Nc2cc(C(F)(F)F)ccn2)nc(-c2cn(-c3ccc(C(N)=O)cc3)nn2)c1 [Example 1.15, 4-[4-(4-methyl-6-{[4-(trifluoromethyl)pyridin-2-yl]amino}pyridin-2-yl)-1H-1,2,3-triazol-1-yl]benzamide]
23 | 13.3 | Cc1cc(Nc2cc(C(F)(F)F)ccn2)nc(-c2cn(C(C)c3ccc(C(N)=O)cc3)nn2)c1 (stereo not drawn) [Example 1.16, 4-{1-[4-(4-methyl-6-{[4-(trifluoromethyl)pyridin-2-yl]amino}pyridin-2-yl)-1H-1,2,3-triazol-1-yl]ethyl}benzamide]
24 | 4.4 | Cc1cc(Nc2cc(C(F)(F)F)ccn2)nc(-c2cn(C(C(N)=O)c3ccc(F)cc3)nn2)c1 (stereo not drawn) [Example 1.17, 2-(4-fluorophenyl)-2-[4-(4-methyl-6-{[4-(trifluoromethyl)pyridin-2-yl]amino}pyridin-2-yl)-1H-1,2,3-triazol-1-yl]acetamide]
25 | 11.8 | Cc1cc(Nc2cc(C(F)(F)F)ccn2)nc(-c2cn(C(C(N)=O)c3ccccc3)nn2)c1 (stereo not drawn) [Example 1.18, 2-[4-(4-methyl-6-{[4-(trifluoromethyl)pyridin-2-yl]amino}pyridin-2-yl)-1H-1,2,3-triazol-1-yl]-2-phenylacetamide]
26 | 123 | Cc1cc(Nc2cc(C(F)(F)F)ccn2)nc(-c2cn([C@H](C)C(=O)N3CCC[C@H]3C(N)=O)nn2)c1 [Example 1.19, 1-{(2R)-2-[4-(4-methyl-6-{[4-(trifluoromethyl)pyridin-2-yl]amino}pyridin-2-yl)-1H-1,2,3-triazol-1-yl]propanoyl}prolinamide]
27 | 87.2 | Cc1cc(Nc2cc(C(F)(F)F)ccn2)nc(-c2cn([C@@H](C)C(=O)N3CCC[C@H]3C(N)=O)nn2)c1 [Example 1.20, 1-{(2S)-2-[4-(4-methyl-6-{[4-(trifluoromethyl)pyridin-2-yl]amino}pyridin-2-yl)-1H-1,2,3-triazol-1-yl]propanoyl}prolinamide]
28 | 23.1 | Cc1cc(Nc2cc(C(F)(F)F)ccn2)nc(-c2cn([C@H](C)C(=O)NCC(N)=O)nn2)c1 [Example 1.21, (2R)-N-(2-amino-2-oxoethyl)-2-[4-(4-methyl-6-{[4-(trifluoromethyl)pyridin-2-yl]amino}pyridin-2-yl)-1H-1,2,3-triazol-1-yl]propanamide]
29 | 22.8 | Cc1cc(Nc2cc(C(F)(F)F)ccn2)nc(-c2cn([C@@H](C)C(=O)NCC(N)=O)nn2)c1 [Example 1.22, (2S)-N-(2-amino-2-oxoethyl)-2-[4-(4-methyl-6-{[4-(trifluoromethyl)pyridin-2-yl]amino}pyridin-2-yl)-1H-1,2,3-triazol-1-yl]propanamide]
30 | 6.8 | Cc1cc(Nc2cc(C(F)(F)F)ccn2)nc(-c2cn([C@H](C)C(N)=O)nn2)c1 [Example 1.23, (2R)-2-[4-(4-methyl-6-{[4-(trifluoromethyl)pyridin-2-yl]amino}pyridin-2-yl)-1H-1,2,3-triazol-1-yl]propanamide]
